Measured values reported in patent publication US20260184675A1, “CHIRAL ISOMERIC SULFITE COMPOUND AND APPLICATION THEREOF” (Chengdu Hanova BioSciences Co., Ltd, priority 2024, published 2026).

Columns and labels:
Type in all cases: in vivo
[1] = system: pest eggs of Tetranychus cinnabarinus; assay: Effect on hatching of pest eggs of Tetranychus cinnabarinus, leaf disc method; settings: for Hatching rate (%): 7 days after insecticide delivery; for inhibitory effect on the hatching of pest eggs of Tetranychus cinnabarinus (in words): 1 ppm
Procedure: (§1) • (1) Preparation of leaf discs containing eggs: 20 female adult mites of Tetranychus cinnabarinus were transferred onto leaf discs of Vicia faba with a diameter of 2.0 cm (with wetted filter paper at the bottom), then covered it with a lidded culture dish and cultivated under moisturizing conditions, the adult mites were removed within 36 hours and microscopic examination and counting were performed on leaf discs containing eggs. • (2) Investigation of egg population base: Before pesticide soaking, a microscopic examination was conducted on the egg basic number of each leaf disc, with 2 replicates set for each treatment. • (3) Pesticide soaking treatment: The leaf butterflies loaded with mite eggs were soaked in clear water and sulfite compounds for 10 seconds, respectively, then taken out and cultivated under moisturizing conditions. Each treatment should be repeated for no less than 3 times. • (4) Cultivation and observation: The […] were cultivated under normal conditions. Five days after insecticide delivery, the hatching status of mite eggs was investigated. • Note: The temperature and humidity conditions of the constant temperature and humidity incubator after the treatment should be controlled so as to avoid excessive temperature differences, which may cause generation and dripping of condensate water in the culture dish, resulting in abnormal death of eggs due to soaking in water; it is also necessary to ensure sufficient strong ambient light, without directing irradiating the leaves. • (5) Survey of Results: The experimental materials of each treatment group were regularly hydrated and moisturized, and the hatching of eggs was observed. On the 7th day after insecticide delivery, the number of hatched eggs for each treatment was recorded, and the survey of results was recorded in the original notebook. According to the experimental requirements and characteristics of agents, the survey time can be shortened or extended. • 1) Surveying and recording the number of hatched eggs for each treatment. • 2) Photographing and recording whether there was any pesticide damage to the leaf discs of Vicia faba. • 3) Recording the developmental status of experimental mite eggs, behavior status of nymph mites, including abnormal phenomena such as delayed or stopped development of mite eggs, difficulty in breaking hull for nymph mites, or painful struggles after hatching, etc. • (6) Calculation method: Based on the survey data, the prevention and control effect of each treatment was calculated according to the following formula, and the calculation results were kept to two decimal places. [formula] [formula] [table]

[2] = system: eggs of Tetranychus urticae; assay: Effect on hatching of eggs of Tetranychus urticae, leaf disc method; settings: 5 ppm; for Hatching rate (%): 5 days after insecticide delivery
Procedure: as §1, with “extended.” for “extended. • 1) Surveying and recording the number of hatched eggs for each treatment. • 2) Photographing and recording whether there was any pesticide damage to the leaf discs of Vicia faba. • 3) Recording the developmental status of experimental mite eggs, behavior status of nymph mites, including abnormal phenomena such as delayed or stopped development of mite eggs, difficulty in breaking hull for nymph mites, or painful struggles after hatching, etc. • (6) Calculation method: Based on the survey data, the prevention and control effect of each treatment was calculated according to the following formula, and the calculation results were kept to two decimal places. [formula] [formula] [table]”
(§2) • 1) Surveying and recording the number of hatched eggs for each treatment. • 2) Photographing and recording whether there was any pesticide damage to the leaf discs of Vicia faba. • 3) Recording the developmental status of experimental mite eggs, behavior status of nymph mites, including abnormal phenomena such as delayed or stopped development of mite eggs, difficulty in breaking hull for nymph mites, or painful struggles after hatching, etc. • (6) Calculation method: Based on the survey data, the prevention and control effect of each treatment was calculated according to the following formula, and the calculation results were kept to two decimal places.
(§3) This test adopted the method in Test Example 1 of technical section, mainly used leaf disc method to explore the inhibitory effect on hatching of eggs of Tetranychus urticae by compounds 1-(S,S), 1-(S,R), 1-(R,R), 1-(R,S), 1′-(S,S), 1′-(S,R), 1′-(R,R), 1′-(R,S), compound 1, compound 1′, S-10, R-10, S-10′, R-10′, compound 10, compound 10′, compound 19-(S,S), 19-(S,R), 19-(R,R), 19-(R,S), 19′-(S,S), 19′-(S,R), 19′-(R,R), 19′-(R,S), compound 19, and compound 19′. The concentration of all compounds was 5 ppm.

eggs of Panonychus citri = assay: Effect on hatching of eggs of Panonychus citri, leaf disc method; settings: 1 ppm; for Hatching rate (%), Replicate 1 / Hatching rate (%), Replicate 2 / Hatching rate (%), Replicate 3 / Number of hatched larvae 5 days after insecticide delivery, Replicate 1 / Number of hatched larvae 5 days after insecticide delivery, Replicate 2 / Number of hatched larvae 5 days after insecticide delivery, Replicate 3: Panonychus citri eggs; for Hatching rate (%), Replicate 1 / Hatching rate (%), Replicate 2 / Hatching rate (%), Replicate 3: 5 days after delivery; for Number of hatched larvae 5 days after insecticide delivery, Replicate 1 / Number of hatched larvae 5 days after insecticide delivery, Replicate 2 / Number of hatched larvae 5 days after insecticide delivery, Replicate 3: leaf disc
Procedure: as §1, with “extended.” for “extended. • 1) Surveying and recording the number of hatched eggs for each treatment. • 2) Photographing and recording whether there was any pesticide damage to the leaf discs of Vicia faba. • 3) Recording the developmental status of experimental mite eggs, behavior status of nymph mites, including abnormal phenomena such as delayed or stopped development of mite eggs, difficulty in breaking hull for nymph mites, or painful struggles after hatching, etc. • (6) Calculation method: Based on the survey data, the prevention and control effect of each treatment was calculated according to the following formula, and the calculation results were kept to two decimal places. [formula] [formula] [table]”
as §2
as §3, with “the” for “the inhibitory”, “Panonychus citri” for “Tetranychus urticae”, “1” for “5”

[3] = Replicate 1, listed as 1-(S, S)
[4] = Replicate 2, listed as 1-(S, S)
[5] = Replicate 1, listed as 1′-(R, R)
[6] = Replicate 2, listed as 1′-(R, R)
[7] = Replicate 1, listed as 1′-(R, S)
[8] = Replicate 2, listed as 1′-(R, S)

| Compound | Hatching rate (%) ([1]; 0.25 mg/L, Replicate 1) | Hatching rate (%) ([1]; 0.25 mg/L, Replicate 2) | Number of hatched larvae 7 days after insecticide delivery ([1]; 0.25 mg/L, Replicate 1) | Number of hatched larvae 7 days after insecticide delivery ([1]; 0.25 mg/L, Replicate 2) | Hatching rate (%) ([1]; 0.5 mg/L, Replicate 1) | Hatching rate (%) ([1]; 0.5 mg/L, Replicate 2) | Number of hatched larvae 7 days after insecticide delivery ([1]; 0.5 mg/L, Replicate 1) | Number of hatched larvae 7 days after insecticide delivery ([1]; 0.5 mg/L, Replicate 2) | Hatching rate (%) ([1]; 1 mg/L, Replicate 1) | Hatching rate (%) ([1]; 1 mg/L, Replicate 2) | Number of hatched larvae 7 days after insecticide delivery ([1]; 1 mg/L, Replicate 1) | Number of hatched larvae 7 days after insecticide delivery ([1]; 1 mg/L, Replicate 2) | inhibitory effect on the hatching of pest eggs of Tetranychus cinnabarinus (in words) [1] | inhibitory activity on the hatching of eggs of Tetranychus urticae (in words) [2] | inhibitory effect on the hatching of eggs of Panonychus citri (in words) (eggs of Panonychus citri) | also measured |
| --- | --- | --- | --- | --- | --- | --- | --- | --- | --- | --- | --- | --- | --- | --- | --- | --- |
| C[C@@H](COS(=O)OCCF)Oc1ccc(Cl)cc1Cl (stereo partly drawn) [1-(S,S)] | 50.88 | 38.98 | 28 | 36 | 0.00 | 9.72 | 70 | 65 | 0.00 | 0.00 | 75 | 68 | excellent inhibitory effects | strong inhibitory activities | good inhibitory effects | Hatching rate (%) [2, 3]: 0.00%; Hatching rate (%) [2, 4]: 0.00%; Number of hatched larvae 5 days after insecticide delivery [2, 3]: 0; Number of hatched larvae 5 days after insecticide delivery [2, 4]: 0; Hatching rate (%), Replicate 1 (eggs of Panonychus citri; listed as 1-(S, S)): 0.00%; Hatching rate (%), Replicate 2 (eggs of Panonychus citri; listed as 1-(S, S)): 0.00%; Hatching rate (%), Replicate 3 (eggs of Panonychus citri; listed as 1-(S, S)): 0.00%; Number of hatched larvae 5 days after insecticide delivery, Replicate 1 (eggs of Panonychus citri; listed as 1-(S, S)): 0; Number of hatched larvae 5 days after insecticide delivery, Replicate 2 (eggs of Panonychus citri; listed as 1-(S, S)): 0; Number of hatched larvae 5 days after insecticide delivery, Replicate 3 (eggs of Panonychus citri; listed as 1-(S, S)): 0 |
| CC(COc1ccc(Cl)cc1Cl)OS(=O)OCCF [1′-(R,R)] | 69.57 | 82.22 | 14 | 8 | 36.84 | 36.51 | 36 | 40 | 25.37 | 8.00 | 50 | 69 | – | – | – | Hatching rate (%) [2, 5]: 17.91%; Hatching rate (%) [2, 6]: 19.28%; Number of hatched larvae 5 days after insecticide delivery [2, 5]: 12; Number of hatched larvae 5 days after insecticide delivery [2, 6]: 16; Hatching rate (%), Replicate 1 (eggs of Panonychus citri; listed as 1′-(R, R)): 8.33%; Hatching rate (%), Replicate 2 (eggs of Panonychus citri; listed as 1′-(R, R)): 7.07%; Hatching rate (%), Replicate 3 (eggs of Panonychus citri; listed as 1′-(R, R)): 5.51%; Number of hatched larvae 5 days after insecticide delivery, Replicate 1 (eggs of Panonychus citri; listed as 1′-(R, R)): 6; Number of hatched larvae 5 days after insecticide delivery, Replicate 2 (eggs of Panonychus citri; listed as 1′-(R, R)): 7; Number of hatched larvae 5 days after insecticide delivery, Replicate 3 (eggs of Panonychus citri; listed as 1′-(R, R)): 7 |
| CC(COc1ccc(Cl)cc1Cl)OS(=O)OCCF [1′-(R,S)] | 54.17 | 29.17 | 22 | 68 | 1.25 | 5.00 | 79 | 76 | 0.00 | 0.00 | 62 | 42 | excellent inhibitory effects | strong inhibitory activities | good inhibitory effects | Hatching rate (%) [2, 7]: 0.00%; Hatching rate (%) [2, 8]: 0.00%; Number of hatched larvae 5 days after insecticide delivery [2, 7]: 0; Number of hatched larvae 5 days after insecticide delivery [2, 8]: 0; Hatching rate (%), Replicate 1 (eggs of Panonychus citri; listed as 1′-(R, S)): 0.00%; Hatching rate (%), Replicate 2 (eggs of Panonychus citri; listed as 1′-(R, S)): 0.00%; Hatching rate (%), Replicate 3 (eggs of Panonychus citri; listed as 1′-(R, S)): 0.00%; Number of hatched larvae 5 days after insecticide delivery, Replicate 1 (eggs of Panonychus citri; listed as 1′-(R, S)): 0; Number of hatched larvae 5 days after insecticide delivery, Replicate 2 (eggs of Panonychus citri; listed as 1′-(R, S)): 0; Number of hatched larvae 5 days after insecticide delivery, Replicate 3 (eggs of Panonychus citri; listed as 1′-(R, S)): 0 |
